Experimental data as given in paper PMC12775434, “Ultra-large virtual screening unveils potent agonists of the neuromodulatory orphan receptor GPR139” (Nature Communications, 2025).
Values joined by “and” are separate entries in the source; they are usually repeats but may differ in a detail not shown here. Equal values may be shown once.

Columns and labels:
Assay type in all cases: cell-based
GPR139 [1] = target: T1, GPR139 (Homo sapiens, UniProt Q6DWJ6); assay: Ca2+ mobilization assay, agonist mode, stable GPR139-CHOk1 cell line; settings: for EC50 / Emax: Supplementary Table 2, mean ± SEM; for EC50: read-out: pEC50 Ca2+ (converted); for Emax: normalized to Lundbeck Cmp 1a, read-out: Emax (%) Ca2+
T1 sequence (Q6DWJ6 1-353): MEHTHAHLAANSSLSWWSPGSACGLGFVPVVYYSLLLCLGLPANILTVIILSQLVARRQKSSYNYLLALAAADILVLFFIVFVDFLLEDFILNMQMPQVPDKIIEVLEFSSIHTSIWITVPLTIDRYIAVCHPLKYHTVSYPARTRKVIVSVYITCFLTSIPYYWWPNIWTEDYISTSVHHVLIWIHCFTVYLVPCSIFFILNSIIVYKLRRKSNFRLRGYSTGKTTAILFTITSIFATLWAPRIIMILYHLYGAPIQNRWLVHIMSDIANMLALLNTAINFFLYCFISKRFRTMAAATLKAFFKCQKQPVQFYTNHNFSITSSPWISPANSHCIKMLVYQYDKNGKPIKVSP
Procedure, shortened: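 Agonist activity of compounds is assessed in stably transfected CHO-K1 cells using the calcium dye Fluo-4 at 37 °C in HEPES-buffered HBSS (pH 7.4). Efficacy is expressed relative to the reference agonist Lundbeck Cmp 1a, set as 100%.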

GPR139 [2] = target: T1, GPR139; assay: Ca2+ mobilization assay, antagonist mode (EC80 800 nM Lundbeck Cmp 1a after 20 min preincubation), GPR139-CHOk1
Procedure, shortened: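 Antagonist mode: 800 nM (EC80) reference agonist Lundbeck Cmp 1a added following 20 min pre-incubation with 10 µM compound. GPR139-CHOk1 cells, Fluo-4 dye, probenecid-containing HEPES buffer pH 7.4; intracellular Ca2+ measured at 37 °C (ex 485, em 525 nm).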

[3] = target: T2, human muscarinic acetylcholine M1 receptor (M1R) (Homo sapiens, UniProt P11229); assay: Ca2+ mobilization counter-screen in M1R-CHOk1 cells;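 also: 10 µM test compound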
T2 sequence (P11229 1-460): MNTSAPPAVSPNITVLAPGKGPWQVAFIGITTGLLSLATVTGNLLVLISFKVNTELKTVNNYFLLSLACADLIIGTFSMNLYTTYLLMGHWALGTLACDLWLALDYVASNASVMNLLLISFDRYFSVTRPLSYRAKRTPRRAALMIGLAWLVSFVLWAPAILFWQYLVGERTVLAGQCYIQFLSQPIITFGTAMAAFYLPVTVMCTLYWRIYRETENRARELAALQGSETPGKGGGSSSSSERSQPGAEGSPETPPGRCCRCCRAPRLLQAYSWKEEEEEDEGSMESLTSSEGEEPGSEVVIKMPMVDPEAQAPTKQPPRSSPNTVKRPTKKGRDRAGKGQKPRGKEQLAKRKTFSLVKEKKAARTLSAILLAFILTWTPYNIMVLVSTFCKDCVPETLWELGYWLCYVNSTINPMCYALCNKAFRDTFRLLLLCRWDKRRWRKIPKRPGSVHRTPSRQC
Procedure, shortened: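 Intracellular calcium flux was measured by fluorescence (485 nm excitation, 525 nm emission) at 37 °C after automated compound addition following baseline, with final DMSO ≤0.3%. CHO-K1 cells stably expressing human M1R were plated 20–24 h beforehand. Cells were dye-loaded with 2 µM Fluo-4 AM for 1 h in pH 7.4 HEPES/HBSS containing 2.5 mM probenecid.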

[4] = Agonist mode, individual replicates (Supplementary Figure 4)
[5] = log [Compound] M = -4.5, individual replicate columns
[6] = log [Compound] M = -5.0, individual replicate columns
[7] = log [Compound] M = -5.5, individual replicate columns
[8] = log [Compound] M = -6.0, individual replicate columns
[9] = log [Compound] M = -6.5, individual replicate columns
[10] = log [Compound] M = -7.0, individual replicate columns
[11] = log [Compound] M = -7.5, individual replicate columns
[12] = log [Compound] M = -8.0, individual replicate columns
[13] = log [Compound] M = -8.5, individual replicate columns
[14] = log [Compound] M = -9.0, individual replicate columns
[15] = individual replicates (Supplementary Figure 4)
[16] = individual replicates (Supplementary Figure 5)
[17] = 0.1 µM, individual replicates (Supplementary Figure 3)
[18] = 1 µM, individual replicates (Supplementary Figure 3)
[19] = 10 µM, individual replicates (Supplementary Figure 3)
[20] = Agonist mode, individual replicates (Supplementary Figure 1)
[21] = individual replicates (Supplementary Figure 1)
[22] = individual replicates (Supplementary Figure 2)

Row | EC50 (GPR139 [1]) [nM] | Emax (GPR139 [1]) [%] | SMILES | Ca2+ signal (% of Cmp 1a) (GPR139 [1]; [4]) | Ca2+ signal (% of Cmp 1a) (GPR139 [1]; [5]) | Ca2+ signal (% of Cmp 1a) (GPR139 [1]; [6]) | Ca2+ signal (% of Cmp 1a) (GPR139 [1]; [7]) | Ca2+ signal (% of Cmp 1a) (GPR139 [1]; [8]) | Ca2+ signal (% of Cmp 1a) (GPR139 [1]; [9]) | Ca2+ signal (% of Cmp 1a) (GPR139 [1]; [10]) | Ca2+ signal (% of Cmp 1a) (GPR139 [1]; [11]) | Ca2+ signal (% of Cmp 1a) (GPR139 [1]; [12]) | Ca2+ signal (% of Cmp 1a) (GPR139 [1]; [13]) | Ca2+ signal (% of Cmp 1a) (GPR139 [1]; [14]) | Ca2+ signal (% of Cmp 1a) (GPR139 [2]; [15]) | Ca2+ signal (% of Carbachol) [3, 16] | Ca2+ signal (% of Cmp 1a) (GPR139 [1]; [17]) | Ca2+ signal (% of Cmp 1a) (GPR139 [1]; [18]) | Ca2+ signal (% of Cmp 1a) (GPR139 [1]; [19]) | Ca2+ signal (% of Cmp 1a) (GPR139 [1]; [20]) | Ca2+ signal (% of Cmp 1a) (GPR139 [2]; [21]) | further results
1 | 316 | 123 ± 14 | COc1csc(-c2nc(CC(=O)NC(C)c3ccccc3)no2)c1 (stereo not shown) [Compound 1.39, COC1=CSC(=C1)C2=NC(CC(=O)NC(C)C=3C=CC=CC3)=NO2] | 80 % of Cmp 1a and 95 % of Cmp 1a and 86 % of Cmp 1a | 120 % of Cmp 1a and 97 % of Cmp 1a and 133 % of Cmp 1a | 130 % of Cmp 1a and 91 % of Cmp 1a and 148 % of Cmp 1a | 122 % of Cmp 1a and 94 % of Cmp 1a and 152 % of Cmp 1a | 98 % of Cmp 1a and 72 % of Cmp 1a and 114 % of Cmp 1a | 73 % of Cmp 1a and 44 % of Cmp 1a and 79 % of Cmp 1a | 38 % of Cmp 1a and 21 % of Cmp 1a and 34 % of Cmp 1a | 20 % of Cmp 1a and 15 % of Cmp 1a and 2 % of Cmp 1a | 16 % of Cmp 1a and 17 % of Cmp 1a and -3.33 % of Cmp 1a | 7 % of Cmp 1a and 12 % of Cmp 1a and -8 % of Cmp 1a | 15 % of Cmp 1a and 20 % of Cmp 1a and 0.667 % of Cmp 1a | -8 % of Cmp 1a and 12 % of Cmp 1a and -11 % of Cmp 1a | -14 % of Carbachol and -1 % of Carbachol and -5.33 % of Carbachol | – | – | – | – | – | –
2 | – | – | CCOc1ccc(C(=O)OCC(=O)N[C@H](C)c2ccccc2)cc1 [Compound 14, CCOC=1C=CC(=CC1)C(=O)OCC(=O)N[C@H](C)C=2C=CC=CC2] | – | – | – | – | – | – | – | – | – | – | – | – | – | 1.0 % of Cmp 1a and -0.9 % of Cmp 1a | -7.4 % of Cmp 1a and 2.7 % of Cmp 1a | 15.1 % of Cmp 1a and 12.7 % of Cmp 1a | 37 % of Cmp 1a and 14 % of Cmp 1a and 31 % of Cmp 1a | 75.8591 % of Cmp 1a and 82.1128 % of Cmp 1a and 79.0278 % of Cmp 1a | Ca2+ signal (% of Carbachol) [3, 22]: -14 % of Carbachol and 13 % of Carbachol
3 | 1260 | 86 ± 11 | Cc1ccc(-c2nc(CC(=O)NC(C)c3ccccc3)no2)cc1C (stereo not shown) [Compound 1.20, CC(C1=CC=CC=C1)NC(CC2=NOC(C3=CC(C)=C(C)C=C3)=N2)=O] | 61 % of Cmp 1a and 51 % of Cmp 1a and 42 % of Cmp 1a | 64 % of Cmp 1a and 88 % of Cmp 1a and 90 % of Cmp 1a | 59 % of Cmp 1a and 87 % of Cmp 1a and 93 % of Cmp 1a | 48 % of Cmp 1a and 72 % of Cmp 1a and 74 % of Cmp 1a | 21 % of Cmp 1a and 45 % of Cmp 1a and 55 % of Cmp 1a | 9 % of Cmp 1a and 20 % of Cmp 1a and 28 % of Cmp 1a | 10 % of Cmp 1a and 20 % of Cmp 1a and 26 % of Cmp 1a | 10 % of Cmp 1a and -2 % of Cmp 1a and 9 % of Cmp 1a | 2 % of Cmp 1a and -1.33 % of Cmp 1a and 4.67 % of Cmp 1a | 7 % of Cmp 1a and -0.667 % of Cmp 1a and -6 % of Cmp 1a | 5 % of Cmp 1a and 1.33 % of Cmp 1a and 10 % of Cmp 1a | 4 % of Cmp 1a and 29 % of Cmp 1a and -0.333 % of Cmp 1a | -9 % of Carbachol and 12 % of Carbachol and 5 % of Carbachol | – | – | – | – | – | –
4 | – | – | CN(Cc1cc(Cl)cn1C)C(=O)CCC(=O)c1cccs1 [Compound 11, CN(CC1=CC(Cl)=CN1C)C(=O)CCC(=O)C2=CC=CS2] | – | – | – | – | – | – | – | – | – | – | – | – | – | 1.5 % of Cmp 1a and 12.7 % of Cmp 1a | -6.5 % of Cmp 1a and 1.1 % of Cmp 1a | 13.9 % of Cmp 1a and 12.8 % of Cmp 1a | 40 % of Cmp 1a and 30 % of Cmp 1a and 33 % of Cmp 1a | 63.3528 % of Cmp 1a and 60.457 % of Cmp 1a and 64.2066 % of Cmp 1a | Ca2+ signal (% of Cmp 1a) (GPR139 [1]; primary screen, 10 µM compound, agonist mode, three columns = independent experiments): 40 % of Cmp 1a and 30 % of Cmp 1a and 33 % of Cmp 1a; Ca2+ signal (% of Carbachol) [3, 22]: -4 % of Carbachol and 17 % of Carbachol
